Measurements reported in US20020115613A1, “Treatment of prostate cancer” (priority 2001, published 2002).

Key:
Type in all cases: cell-based
LNCaP cells = assay: Caspase-9 colorimetric activity assay; settings: FIG. 4A
Method: (§1) LNCaP were obtained from American Type Culture Collection (Rockville, Md.) and LNCaP C4-2 cells were purchased from Urocor Inc., Oklahoma City, Okla. Cells were grown in RPMI 1640 medium supplemented with 10% (LNCaP) or 5% (LNCaP C4-2) fetal bovine serum (Hyclone, Logan, Utah) and grown in the presence of 5% CO2 at 37° C. Cells were treated with 10 μM Mifepristone (Sigma, St. Louis, Mo.) for three days or with increasing concentrations (from 200 ng/ml to 600 ng/ml) of TRAIL (Biomol Research Laboratories, Inc., Plymouth Meetings, Pa.) for varying time intervals 2, 4, 6, 8, 16, 20 and 24 hours (hr). Thus, for treatment with Mifepristone, cells were treated with Mifepristone for three days and then some cells treated (without washing) with TRAIL for indicated periods. Upon completion of the experiment, cells were harvested, and total proteins, cytosol or mitochondrial fractions were isolated as described below. At least three experiments were conducted with a minimum of four plates per treatment per experiment. As caspase-9 is a key protein in the formation of apoptosome, assays were performed to determine the activity of caspase-9. Caspase-9 activity was assayed using a colorimetric substrate, […] with a kit from Chemicon International, Inc. (Temecula, Calif.). Cleavage of the C-terminal peptide bond by the enzyme released p-nitroaniline, which was measured at 405 nm. Pure recombinant human caspase-9 was utilized as a positive control.

LNCaP C4-2 cells [1] = assay: Caspase-9 colorimetric activity assay; settings: FIG. 4B
Method: as §1

LNCaP C4-2 cells [2] = assay: Apoptosense assay (M30 ELISA, cleaved cytokeratin 18)
Method: LNCaP were obtained from American Type Culture Collection (Rockville, Md.) and LNCaP C4-2 cells were purchased from Urocor Inc., Oklahoma City, Okla. Cells were grown in RPMI 1640 medium supplemented with 10% (LNCaP) or 5% (LNCaP C4-2) fetal bovine serum (Hyclone, Logan, Utah) and grown in the presence of 5% CO2 at 37° C. Cells were treated with 10 μM Mifepristone (Sigma, St. Louis, Mo.) for three days or with increasing concentrations (from 200 ng/ml to 600 ng/ml) of TRAIL (Biomol Research Laboratories, Inc., Plymouth Meetings, Pa.) for varying time intervals 2, 4, 6, 8, 16, 20 and 24 hours (hr). Thus, for treatment with Mifepristone, cells were treated with Mifepristone for three days and then some cells treated (without washing) with TRAIL for indicated periods. Upon completion of the experiment, cells were harvested, and total proteins, cytosol or mitochondrial fractions were isolated as described below. At least three experiments were conducted with a minimum of four plates per treatment per experiment. Two methods were used to measure induction of apoptosis by drug treatment: the MTT assay and the Apoptosense assay. The MTT assay measures mitochondrial enzyme activity and is indicative of the number of surviving cells. […] Cells were plated in petri dishes and after completion of the treatment, cells were harvested and total protein extracted as described below. […] Color was developed by adding tetramethylbenzidine solution and the optical density of the bound antibody was determined at 450 nm on a Spectra MAX 340 microplate reader (Molecular Devices, Menlo Park, Calif.). Standard solution supplied by the supplier was used for generating standard curves.

Molecule	caspase-9 activity (LNCaP cells)	caspase-9 activity (LNCaP C4-2 cells [1])	M30 activity (in words) (LNCaP C4-2 cells [2])	M30 activity (LNCaP C4-2 cells [2]; between 8 hr to 20 hr treatment, FIG. 1D)
CC#C[C@]1(O)CC[C@H]2[C@@H]3CCC4=CC(=O)CCC4=C3[C@@H](c3ccc(N(C)C)cc3)C[C@@]21C [Mifepristone]	induced caspase-9 activity	induced caspase-9 activity	lower M30 activity	–
Tumor necrosis factor α—Related Apoptosis Inducing Ligand (protein, UniProt P50591 1-281, looked up, 281 amino acid type II transmembrane protein of the tumor necrosis factor α family; purchased from Biomol) Tumor necrosis factor ligand …: MAMMEVQGGPSLGQTCVLIVIFTVLLQSLCVAVTYVYFTNELKQMQDKYSKSGIACFLKEDDSYWDPNDEESMNSPCWQVKWQLRQLVRKMILRTSEETISTVQEKQQNISPLVRERGPQRVAAHITGTRGRSNTLSSPNSKNEKALGRKINSWESSRSGHSFLSNLHLRNGELVIHEKGFYYIYSQTYFRFQEEIKENTKNDKQMVQYIYKYTSYPDPILLMKSARNSCWSKDAEYGLYSIYQGGIFELKENDRIFVSVTNEHLIDMDHEASFFGAFLVG	induced caspase-9 activity	induced caspase-9 activity	–	1.4-2.0 U/ug
